These results are taken from patent US6015560A, “Antibody recognizing endothelial cell ligand for leukocyte CR3” (priority 1995, dated 2000).

In one assay the test system is neutrophils. As to the kind of experiment: Inhibition of 125I-Factor X binding to neutrophils. Further details: species or system human. Here is the method: Human Factor X (Sigma or Hematologic Technologies Inc.) was labeled with ^125 I using Iodogen (Pierce Chemical Co.) Human neutrophils were isolated from heparinized blood according to the manufacturer's specification using Neutrophil Isolation Medium (Cardinal Associates, Santa Fe, N.Mex.) and washed three times with 5 mM EDTA-phosphate-bufferedsaline (PBS), pH 7.2, at 4° C. To eliminate platelet contamination,neutrophils were incubated with autologous serum containing 5 mM EDTA for 30 mins. at 37° C., washed three times with ice-cold PBS, pH 7.2, and resuspended in RPMI 1640 tissue culture medium (Whittaker M. A. Bioproducts, Walkersville, Md.) at 4° C. Binding of ^125 I-Factor X to neutrophils was measured based on a method described by Altieri et al. (1991) Science 254: 1200-1202. Briefly, 200 μl of neutrophils (1.5×10^7 /ml) were supplemented with 17.5 μl of 50 mM CaCl2, stimulated with 3.5 μl of 100 μM NH2 -formyl-Met-Leu-Phe (Sigma), and mixed with 30 μl of 10.3 μg/ml ^125 I-Factor X and 100 μl of 1.75 mM of peptide. […] Aliquots of the supernatant (cell free ^125 I-Factor X) and the cell pellet (cell bound ^125 I-Factor X) were counted in a gamma-counter. Nonspecific binding (~50,000 cpm) was determined by adding a 100 fold excess of unlabeled Factor X, and subtracted from total radioactivity (~500,000 cpm for controls).

The subject of another assay is C3bi. As to the kind of experiment: Inhibition of binding of 12.1F9 to E-C3bi by peptides. Also noted: species or system human. The source says:
The antibody 12.1F9 maps to the region 1279-2011 of FHA. When the derived amino acid sequence of this region was compared to that of C3, a region of 11 amino acids with similar sequence was found between FHA residues 1408-1418 and C3 residues 1187-1197 (Table 14). […] However, the FHA-20-mer and the homologous C3-derived peptide blocked binding by up to 60%.

In another assay the test system is blood brain barrier. As to the kind of experiment: Rabbit meningitis model: CSF protein and lactate (blood brain barrier permeability). The class given is in vivo. Summed up: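 New Zealand white rabbits (2 kg) under anaesthesia challenged intracisternally with 10^8 heat-killed unencapsulated pneumococcus R6; peptides given IV in 1 ml saline 1 h later, at 0.1 μM, 10 μM or 10^-3 μM depending on peptide. CSF sampled hourly; protein by BCA and lactate assayed, compared by one-way ANOVA.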

For assay [1] the following is noted: TLC plates containing ciliary extracts; cited from earlier work.
The next assay concerns leukocytes in CSF. As to the kind of experiment: Rabbit meningitis model: leukocyte migration into CSF. The format is in vivo. Summed up: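 New Zealand white rabbits received 10^8 heat-killed unencapsulated pneumococcus R6 intracisternally, then peptide in 1 ml saline i.v. 1 h later (1 uM in the follow-up study). CSF leukocyte density was counted hourly after inoculation. Peripheral blood leukocytes were sampled 30 min post-dosing.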

Setting [2] is: 6 hours, peptides 10 μM, FHA 0.1 μM.

Turning to filamentous hemagglutinin [native FHA], the IC50 in the assay with neutrophils is 100 nM. Also, the “inhibition of 125I-Factor X binding to neutrophils” value with neutrophils (native FHA 0.3 μM) was determined as 70±4%. The “block of binding of 12.1F9 to C3bi (in words)” value in the assay on C3bi is listed as “blocked binding almost completely”. Also, the Adherence index in the assay with C3bi (peptides 50 μg/ml, normalized to a control value of 100) was 16 ± 16. The “protein influx into CSF and lactate generation (in words)” value with blood brain barrier (10 μM peptides, 0.1 μM FHA) was “significantly protective for protein influx and lactate generation”. Besides, the “Total protein in CSF” value with blood brain barrier (6 hours) was 1.70 ± 0.33 mg/mL. For the same substance, in the assay with blood brain barrier (setting [2]), the “Lactate in CSF” value came to 25.0 ± 5.3 mg/100 ml and the “Protein in CSF” value came to 1.3 ± 0.3 mg/ml CSF. Further, the “Total protein in CSF” value in the assay on blood brain barrier (7 hours) worked out at 1.86 ± 0.76 mg/mL. The binding to lactosylceramide result in assay [1] is reported as “binds to lactosylceramide”. In the assay on leukocytes in CSF (10^-3 μM i.v.), the “anti-inflammatory effect (in words)” value was “ineffective”. In the assay on leukocytes in CSF (7 hours, FHA 0.1 μM (25 μg) i.v.), the “mean leukocyte concentration in CSF” value is given as 2096±450 /μl CSF. Moreover, the “leukocyte density vs control (in words)” value in the assay with leukocytes in CSF (7 hours, 10^-1 μM) is “statistically significantly different from control”. In the assay with leukocytes in CSF (peptides 10 μM, FHA 0.1 μM), the “reduction of CSF leukocytosis” value is recorded as over 60%.

What is called IC50 is the point on the concentration scale where inhibition reaches its midpoint. Read a low IC50 as greater potency in that assay.
